According to patent US11078216B2, “Bisaryl amides as NRF2 activators” (GLAXOSMITHKLINE INTELLECTUAL PROPERTY DEVELOPMENT LIMITED, priority 2016, dated 2021):

Test system: NRF2 (NQO1 activity as marker for NRF2 activation), BEAS-2B cells
Experiment: BEAS-2B NQO1 MTT Assay
Format: cell-based
Conditions: Homo sapiens, EC50 of NQO1 specific activity induction, 48 hours incubation, read-out: EC50
Description: NAD(P)H:quinone oxidoreductase 1 (NQO1), also called DT diaphorase, is a homodimeric FAD-containing enzyme that catalyzes obligatory NAD(P)H-dependent two-electron reductions of quinones and protects cells against the toxic and neoplastic effects of free radicals and reactive oxygen species arising from one-electron reductions. The transcription of NQO1 is finely regulated by NRF2, and thus NQO1 activity is a good marker for NRF2 activation. On day one, frozen BEAS-2B cells (ATCC) are thawed in a water bath, counted, and re-suspended at a concentration of 250,000 cells/mL. Fifty microliters of cells are plated in 384 well black clear-bottomed plates. Plates are incubated at 37° C., 5% CO2 overnight. On day two, plates are centrifuged and 50 nL of compound or controls are added to the cells. Plates are then incubated at 37° C., 5% CO2 for 48 hours. On day four, medium is aspirated from the plate and crude cell lysates are made by adding 13 uL of 1× Cell Signaling Technologies lysis buffer with 1 Complete, Mini, EDTA-free Protease Inhibitor Tablet (Roche) for each 10 mL of lysis buffer. After lysis plates are incubated for 20 minutes at room temperature. Two microliters of lysate are removed for use in Cell Titer Glo assay (Promega) and MTT cocktail is prepared (Prochaska et. al. 1998) for measurement of NQO1 activity. Fifty microliters of MTT cocktail is added to each well, plate is centrifuged, and analyzed on an Envision plate reader (Perkin Elmer) using Absorbance 570 nm label for 30 minutes. Product formation is measured kinetically and the EC50 of NQO1 specific activity induction is calculated by plotting the change in absorbance (Delta OD/min) versus the log of compound concentration followed by 3-parameter fitting.
EC50s<1 nM (+++++), EC50s 1 nM-10 nM (++++), EC50s 10 nM-100 nM (+++), EC50s 100 nM-1 uM (++), EC50s 1-10 uM (+), EC50s>10 uM (−), or were not determined (ND).

| Compound | EC50 [nM] |
| --- | --- |
| CC[C@@H]1CN(Cc2cc([C@H](CC(=O)Nc3ccncc3)c3ccc4c(nnn4CC)c3C)ccc2C)S(=O)(=O)c2cccnc2O1 [Example 19, (S)-3-(3-(((R)-4-Ethyl-1,1-dioxido-3,4-dihydro-2H-pyrido[2,3-b][1,4,5]oxathiazepin-2-yl)methyl)-4-methylphenyl)-3-(1-ethyl-4-methyl-1H-benzo[d][1,2,3]triazol-5-yl)-N-(pyridin-4-yl)propanamide] | 100 to 1000 |
| CC[C@@H]1CN(Cc2cc([C@@H](c3ccc4c(nnn4CC)c3C)[C@@H](C)C(=O)N3C(=O)OC[C@H]3Cc3ccccc3)ccc2C)S(=O)(=O)c2cccnc2O1 [Example 20, (R)-4-Benzyl-3-((2R,3S)-3-(3-(((R)-4-ethyl-1,1-dioxido-3,4-dihydro-2H-pyrido[2,3-b][1,4,5]oxathiazepin-2-yl)methyl)-4-methylphenyl)-3-(1-ethyl-4-methyl-1H-benzo[d][1,2,3]triazol-5-yl)-2-methylpropanoyl)oxazolidin-2-one] | 100 to 1000 |
| CC[C@@H]1CN(Cc2cc([C@H](CC(=O)NCCC(=O)N(C)C)c3ccc4c(nnn4CC)c3C)ccc2C)S(=O)(=O)c2cccnc2O1 [Example 21, (S)—N-(3-(Dimethylamino)-3-oxopropyl)-3-(3-(((R)-4-ethyl-1,1-dioxido-3,4-dihydro-2H-pyrido[2,3-b][1,4,5]oxathiazepin-2-yl)methyl)-4-methylphenyl)-3-(1-ethyl-4-methyl-1H-benzo[d][1,2,3]triazol-5-yl)propanamide] | 1000 to 10000 |
| CC[C@@H]1CN(Cc2cc([C@H](CC(=O)NC3CCOC3)c3ccc4c(nnn4CC)c3C)ccc2C)S(=O)(=O)c2cccnc2O1 (stereo partly drawn) [Example 22, (3S)-3-(3-(((R)-4-Ethyl-1,1-dioxido-3,4-dihydro-2H-pyrido[2,3-b][1,4,5]oxathiazepin-2-yl)methyl)-4-methylphenyl)-3-(1-ethyl-4-methyl-1H-benzo[d][1,2,3]triazol-5-yl)-N-(tetrahydrofuran-3-yl)propanamide] | 100 to 1000 |
| CC[C@@H]1CN(Cc2cc([C@H](CC(=O)NC(C)(C)C(N)=O)c3ccc4c(nnn4CC)c3C)ccc2C)S(=O)(=O)c2cccnc2O1 [Example 23, (S)-N-(1-Amino-2-methyl-1-oxopropan-2-yl)-3-(3-(((R)-4-ethyl-1,1-dioxido-3,4-dihydro-2H-pyrido[2,3-b][1,4,5]oxathiazepin-2-yl)methyl)-4-methylphenyl)-3-(1-ethyl-4-methyl-1H-benzo[d][1,2,3]triazol-5-yl)propanamide] | 1000 to 10000 |
| CC[C@@H]1CN(Cc2cc([C@H](CC(=O)NC3CN(C)C3)c3ccc4c(nnn4CC)c3C)ccc2C)S(=O)(=O)c2cccnc2O1 [Example 24, (S)-3-(3-(((R)-4-Ethyl-1,1-dioxido-3,4-dihydro-2H-pyrido[2,3-b][1,4,5]oxathiazepin-2-yl)methyl)-4-methylphenyl)-3-(1-ethyl-4-methyl-1H-benzo[d][1,2,3]triazol-5-yl)-N-(1-methylazetidin-3-yl)propanamide] | 1000 to 10000 |
| CC[C@@H]1CN(Cc2cc([C@H](CC(=O)NC3CCCOC3)c3ccc4c(nnn4CC)c3C)ccc2C)S(=O)(=O)c2cccnc2O1 (stereo partly drawn) [Example 25, (3S)-3-(3-(((R)-4-Ethyl-1,1-dioxido-3,4-dihydro-2H-pyrido[2,3-b][1,4,5]oxathiazepin-2-yl)methyl)-4-methylphenyl)-3-(1-ethyl-4-methyl-1H-benzo[d][1,2,3]triazol-5-yl)-N-(tetrahydro-2H-pyran-3-yl)propanamide] | 100 to 1000 |
| CC[C@@H]1CN(Cc2cc([C@H](CC(=O)NCC3CCOC3)c3ccc4c(nnn4CC)c3C)ccc2C)S(=O)(=O)c2cccnc2O1 (stereo partly drawn) [Example 26, (3S)-3-(3-(((R)-4-Ethyl-1,1-dioxido-3,4-dihydro-2H-pyrido[2,3-b][1,4,5]oxathiazepin-2-yl)methyl)-4-methylphenyl)-3-(1-ethyl-4-methyl-1H-benzo[d][1,2,3]triazol-5-yl)-N-((tetrahydrofuran-3-yl)methyl)propanamide] | 100 to 1000 |
| CC[C@@H]1CN(Cc2cc([C@H](CC(=O)NCC(C)(C)O)c3ccc4c(nnn4CC)c3C)ccc2C)S(=O)(=O)c2cccnc2O1 [Example 27, (S)-3-(3-(((R)-4-Ethyl-1,1-dioxido-3,4-dihydro-2H-pyrido[2,3-b][1,4,5]oxathiazepin-2-yl)methyl)-4-methylphenyl)-3-(1-ethyl-4-methyl-1H-benzo[d][1,2,3]triazol-5-yl)-N-(2-hydroxy-2-methylpropyl)propanamide] | 1000 to 10000 |
| CC[C@@H]1CN(Cc2cc([C@H](CC(=O)NC(C)C(=O)NC)c3ccc4c(nnn4CC)c3C)ccc2C)S(=O)(=O)c2cccnc2O1 (stereo partly drawn) [Example 28, (3S)-3-(3-(((R)-4-Ethyl-1,1-dioxido-3,4-dihydro-2H-pyrido[2,3-b][1,4,5]oxathiazepin-2-yl)methyl)-4-methylphenyl)-3-(1-ethyl-4-methyl-1H-benzo[d][1,2,3]triazol-5-yl)-N-(1-(methylamino)-1-oxopropan-2-yl)propanamide] | 1000 to 10000 |
| CC[C@@H]1CN(Cc2cc([C@H](CC(=O)NC3CCCNC3=O)c3ccc4c(nnn4CC)c3C)ccc2C)S(=O)(=O)c2cccnc2O1 (stereo partly drawn) [Example 29, (3S)-3-(3-(((R)-4-Ethyl-1,1-dioxido-3,4-dihydro-2H-pyrido[2,3-b][1,4,5]oxathiazepin-2-yl)methyl)-4-methylphenyl)-3-(1-ethyl-4-methyl-1H-benzo[d][1,2,3]triazol-5-yl)-N-(2-oxopiperidin-3-yl)propanamide] | 1000 to 10000 |
| CC[C@@H]1CN(Cc2cc([C@H](CC(=O)NCCS(N)(=O)=O)c3ccc4c(nnn4CC)c3C)ccc2C)S(=O)(=O)c2cccnc2O1 [Example 30, (S)-3-(3-(((R)-4-Ethyl-1,1-dioxido-3,4-dihydro-2H-pyrido[2,3-b][1,4,5]oxathiazepin-2-yl)methyl)-4-methylphenyl)-3-(1-ethyl-4-methyl-1H-benzo[d][1,2,3]triazol-5-yl)-N-(2-sulfamoylethyl)propanamide] | 100 to 1000 |
| CC[C@@H]1CN(Cc2cc([C@H](CC(=O)NC3CC3)c3ccc4c(nnn4CC)c3C)ccc2C)S(=O)(=O)c2cccnc2O1 [Example 31, (S)—N-Cyclopropyl-3-(3-(((R)-4-ethyl-1,1-dioxido-3,4-dihydro-2H-pyrido[2,3-b][1,4,5]oxathiazepin-2-yl)methyl)-4-methylphenyl)-3-(1-ethyl-4-methyl-1H-benzo[d][1,2,3]triazol-5-yl)propanamide] | 100 to 1000 |
| CC[C@@H]1CN(Cc2cc([C@H](CC(=O)NCCO)c3ccc4c(nnn4CC)c3C)ccc2C)S(=O)(=O)c2cccnc2O1 [Example 32, (S)-3-(3-(((R)-4-Ethyl-1,1-dioxido-3,4-dihydro-2H-pyrido[2,3-b][1,4,5]oxathiazepin-2-yl)methyl)-4-methylphenyl)-3-(1-ethyl-4-methyl-1H-benzo[d][1,2,3]triazol-5-yl)-N-(2-hydroxyethyl)propanamide] | 1000 to 10000 |
| CC[C@@H]1CN(Cc2cc([C@H](CC(=O)NCCCO)c3ccc4c(nnn4CC)c3C)ccc2C)S(=O)(=O)c2cccnc2O1 [Example 33, (S)-3-(3-(((R)-4-Ethyl-1,1-dioxido-3,4-dihydro-2H-pyrido[2,3-b][1,4,5]oxathiazepin-2-yl)methyl)-4-methylphenyl)-3-(1-ethyl-4-methyl-1H-benzo[d][1,2,3]triazol-5-yl)-N-(3-hydroxypropyl)-propanamide] | 1000 to 10000 |
| CC[C@@H]1CN(Cc2cc([C@H](CC(=O)NCCCOC)c3ccc4c(nnn4CC)c3C)ccc2C)S(=O)(=O)c2cccnc2O1 [Example 34, (S)-3-(3-(((R)-4-Ethyl-1,1-dioxido-3,4-dihydro-2H-pyrido[2,3-b][1,4,5]oxathiazepin-2-yl)methyl)-4-methylphenyl)-3-(1-ethyl-4-methyl-1H-benzo[d][1,2,3]triazol-5-yl)-N-(3-methoxypropyl)-propanamide] | 1000 to 10000 |
| CC[C@@H]1CN(Cc2cc([C@H](CC(=O)NCC(N)=O)c3ccc4c(nnn4CC)c3C)ccc2C)S(=O)(=O)c2cccnc2O1 [Example 35, (S)—N-(2-Amino-2-oxoethyl)-3-(3-(((R)-4-ethyl-1,1-dioxido-3,4-dihydro-2H-pyrido[2,3-b][1,4,5]oxathiazepin-2-yl)methyl)-4-methylphenyl)-3-(1-ethyl-4-methyl-1H-benzo[d][1,2,3]triazol-5-yl)propanamide] | 1000 to 10000 |
| CC[C@@H]1CN(Cc2cc([C@H](CC(=O)NCCNC)c3ccc4c(nnn4CC)c3C)ccc2C)S(=O)(=O)c2cccnc2O1 [Example 36, (S)-3-(3-(((R)-4-Ethyl-1,1-dioxido-3,4-dihydro-2H-pyrido[2,3-b][1,4,5]oxathiazepin-2-yl)methyl)-4-methylphenyl)-3-(1-ethyl-4-methyl-1H-benzo[d]-[1,2,3]triazol-5-yl)-N-(2-(methylamino)ethyl)propanamide] | 100 to 1000 |
